Source: the supplement of paper PMC10307832

Assays:
Experiment in all cases: relative viability (nuclei count vs DMSO), 5 days (fraction); higher = more cells survive
[1] = compound: COc1cc([C@@H]2c3cc4c(cc3[C@@H](O[C@@H]3O[C@@H]5CO[C@@H](C)O[C@H]5[C@H](O)[C@H]3O)[C@H]3COC(=O)[C@H]23)OCO4)cc(OC)c1O [Etoposide] + COc1cccc2cc(-c3nc([C@H]4CC[C@H](C(=O)O)CC4)n4ncnc(N)c34)[nH]c12 [OSI-027] (partner 0.5 µM)
Procedure, shortened: (§1)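 Relative viability equals treated-well nuclei counts divided by vehicle-well nuclei counts. Counts came from 4× images of lung cancer cell lines grown in 1536-well plates for 5 days after pin-tool dosing on the day after seeding. Dosing used one drug alone or a fixed anchor-drug dose plus five library-drug doses (not always all listed) in √10 steps, and values are medians of duplicate plates.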

[2] = compound: COc1cc([C@@H]2c3cc4c(cc3[C@@H](O[C@@H]3O[C@@H]5CO[C@@H](C)O[C@H]5[C@H](O)[C@H]3O)[C@H]3COC(=O)[C@H]23)OCO4)cc(OC)c1O [Etoposide] + C[C@]1(O)C[C@@H](c2nc(-c3ccc4ccc(-c5ccccc5)nc4c3)c3c(N)nccn32)C1 [Linsitinib] (partner 1 µM)
Procedure, shortened: as §1

[3] = compound: COc1cc([C@@H]2c3cc4c(cc3[C@@H](O[C@@H]3O[C@@H]5CO[C@@H](C)O[C@H]5[C@H](O)[C@H]3O)[C@H]3COC(=O)[C@H]23)OCO4)cc(OC)c1O [Etoposide] + Cc1nc(NC(=O)N2CCC[C@H]2C(N)=O)sc1-c1ccnc(C(C)(C)C(F)(F)F)c1 [Alpelisib] (partner 2 µM)
Procedure, shortened: as §1

[4] = compound: COc1cc([C@@H]2c3cc4c(cc3[C@@H](O[C@@H]3O[C@@H]5CO[C@@H](C)O[C@H]5[C@H](O)[C@H]3O)[C@H]3COC(=O)[C@H]23)OCO4)cc(OC)c1O [Etoposide] + O=C(CCCCCCC(=O)Nc1ccccc1)NO [Vorinostat] (partner 1 µM)
Procedure, shortened: as §1

Cell Line	relative viability ([1]; first compound 0.01 µM)	relative viability ([1]; first compound 0.03162 µM)	relative viability ([1]; first compound 0.1 µM)	relative viability ([1]; first compound 0.3162 µM)	relative viability ([1]; first compound 1 µM)	relative viability ([2]; first compound 0.01 µM)	relative viability ([2]; first compound 0.03162 µM)	relative viability ([2]; first compound 0.1 µM)	relative viability ([2]; first compound 0.3162 µM)	relative viability ([2]; first compound 1 µM)	relative viability ([3]; first compound 0.01 µM)	relative viability ([3]; first compound 0.03162 µM)	relative viability ([3]; first compound 0.1 µM)	relative viability ([3]; first compound 0.3162 µM)	relative viability ([3]; first compound 1 µM)	relative viability ([4]; first compound 0.01 µM)	relative viability ([4]; first compound 0.03162 µM)	relative viability ([4]; first compound 0.1 µM)	relative viability ([4]; first compound 0.3162 µM)	relative viability ([4]; first compound 1 µM)
SK-LU-1	0.358	0.373	0.251	0.174	0.172	1.03	1.03	0.829	0.401	0.281	0.781	0.875	0.648	0.299	0.233	0.696	0.671	0.638	0.273	0.249
NCI-H1650	0.711	0.556	0.41	0.32	0.163	–	–	–	–	–	–	–	–	–	–	0.428	0.518	0.518	0.229	0.219
BEN	0.266	0.306	–	0.297	0.318	0.695	0.983	–	0.78	0.681	0.841	1.08	–	0.87	0.852	0.542	0.722	–	0.559	0.616
EMC-BAC-2	0.353	0.383	0.294	0.23	0.15	0.719	0.803	0.58	0.273	0.186	0.711	0.65	0.522	0.238	0.15	0.636	0.428	0.239	0.153	0.139
LU99A	0.307	0.343	0.242	0.308	0.228	0.495	0.614	0.333	0.264	0.201	0.522	0.629	0.331	0.24	0.143	0.489	0.533	0.23	0.297	0.108
ABC-1	0.529	0.564	0.339	0.361	0.179	0.753	0.894	0.879	0.418	0.308	1.03	1.1	1.02	0.577	0.243	1.07	1.57	0.571	0.55	0.223
NCI-H2170	0.697	0.76	0.44	0.736	0.536	–	–	–	–	–	0.65	0.849	–	0.621	0.513	0.782	0.846	–	0.755	0.438
NCI-H1299	–	–	–	–	–	0.973	1.03	1	0.879	0.7	1.04	1.04	1.14	1.02	0.872	–	–	–	–	–
EBC-1	–	–	–	–	–	0.903	0.942	0.349	0.788	0.466	0.841	0.909	0.452	0.75	0.38	–	–	–	–	–
NCI-H2405	0.637	0.671	0.49	0.612	0.462	0.791	0.96	0.582	0.7	0.377	0.714	0.801	0.482	0.582	0.34	1.11	1.12	0.765	0.742	0.27
NCI-H1993	0.565	0.452	0.53	0.508	0.522	0.81	0.692	0.7	0.662	0.537	0.741	0.719	0.649	0.624	0.533	–	0.683	0.507	0.718	0.284
NCI-H441	0.625	0.638	0.416	0.267	0.224	0.51	0.474	0.292	0.179	0.148	0.473	0.722	0.362	0.16	0.174	0.645	0.625	0.345	0.224	0.182
NCI-H2342	0.707	0.649	0.51	0.402	0.352	–	–	–	–	–	–	–	–	–	–	0.788	0.788	0.471	0.421	0.369
NCI-H1792	0.509	0.699	0.51	0.696	0.537	0.405	0.331	0.261	0.418	0.289	0.61	0.415	0.374	0.549	0.302	–	–	–	–	–
ChaGo-K-1	0.487	0.689	0.466	0.285	0.174	–	–	–	–	–	–	–	–	–	–	0.756	0.736	0.413	0.353	0.197
A549	–	–	–	–	–	0.41	0.584	0.225	0.262	0.0891	0.737	0.793	0.375	0.224	0.0497	–	–	–	–	–
NCI-H1563	0.738	0.781	0.756	0.61	0.466	1.17	1.05	0.957	0.673	0.612	0.855	0.918	0.868	0.588	0.557	–	–	–	–	–
SW 900	0.448	0.563	0.367	0.333	0.129	–	–	–	–	–	–	–	–	–	–	0.413	0.468	0.408	0.295	0.167
IA-LM	–	–	–	–	–	0.584	0.596	0.348	0.506	0.527	0.773	0.815	0.477	0.645	0.552	0.701	1	0.577	0.826	0.354
NCI-H1703	–	–	–	–	–	0.672	1.04	0.642	0.641	0.329	0.406	0.367	0.31	0.287	0.255	–	–	–	–	–
NCI-H1648	–	0.269	0.253	0.289	0.292	–	–	–	–	–	–	–	–	–	–	–	0.58	0.306	0.3	0.329
